Test results as given in patent publication US11944614B2, “Imidazo[4,5-c]pyridine compounds as LSD-1 inhibitors” (THE REGENTS OF THE UNIVERSITY OF MICHIGAN, priority 2018, dated 2024).
pIC50: −log10 of the molar value.

Target: Human recombinant LSD1 protein (Homo sapiens (Human), UniProt O60341)
Test: LSD1 enzymatic activity, AlphaLISA demethylation assay
Assay type: biochemical
Settings: 4 nM LSD1, 80 nM Biotin-H3K4Me peptide substrate, 1% DMSO, 60 minutes reaction
Method: Human recombinant LSD1 protein expressed in E. coli cells was purchased from Active Motif (Carlsbad, Calif.). Biotin-labeled Histone H3K4Me peptide (residues 1-21 with Lys 4 monomethylated) substrate was purchased from Anaspec (Fremont, Calif.). Enzymatic activity was assessed using the AlphaLISA technology from Perkin Elmer Life Sciences (Waltham, Mass.). 2.5 μL of compound solution and 5 μL of LSD1 solutions in the assay buffer (50 mM Tris, pH 9.0, 50 mM NaCl with 0.01% Tween20 and 1 mM DTT added right before the assay) were added into a white low volume 384 well microtiter plate. This mixture solution was incubated for 15 minutes with gentle shaking at room temperature. Demethylation reaction was initiated by adding 2.5 μL of Biotin-H3K4Me peptide substrate solution in the assay buffer. Final concentrations of LSD1, Biotin-H3K4Me peptide substrate, and DMSO were 4 nM, 80 nM, and 1%, respectively. The reaction was allowed to proceed for 60 minutes in dark with gentle shaking at room temperature, after which 5 μL of Anti-H3K4 AlphaLISA acceptor beads in detection buffer from the manufacturer was added into the reaction mixture followed by incubation for 60 minutes. 10 μL of Streptavidin labeled AlphaLISA donor beads in detection buffer was added into the mixture followed by 30-minute incubation. Final acceptor and donor beads concentrations were both at 10 μg/mL. Plates were read on a BMG CLARIOStar multimode plate reader from BMG Labtech (Ortenberg, Germany) with an excitation wavelength of 680 nm and emission wavelength of 615 nm. IC50 values of inhibitors were obtained by fitting the fluorescence intensity vs inhibitor concentrations in a sigmoidal dose-response curve (variable slope) with a non-linear regression using Prism 7 (La Jolla, Calif.).

Row | pIC50 | SMILES
1 | 7.06 | CN1CCC(Cn2cnc3c(-c4ccc(C#N)cc4)c(-c4ccc5c(cnn5C)c4)ncc32)C1 (centres unmarked) [compound 31, 4-(6-(1-methyl-1H-indazol-5-yl)-3-((1-methylpyrrolidin-3-yl)methyl)-3H-imidazo[4,5-c]pyridin-7-yl)benzonitrile]
2 | 8.25 | CN1CCOc2cc(-c3ncc4c(ncn4CC4CCNC4)c3-c3ccc(C#N)cc3)ccc21 (centres unmarked) [compound 32, 4-(6-(4-methyl-3,4-dihydro-2H-benzo[b][1,4]oxazin-7-yl)-3-(pyrrolidin-3-ylmethyl)-3H-imidazo[4,5-c]pyridin-7-yl)benzonitrile]
3 | 7.53 | CN1CCC(Cn2cnc3c(-c4ccc(C#N)cc4)c(-c4ccc5c(c4)OCCN5C)ncc32)C1 (centres unmarked) [compound 33, 4-(6-(4-methyl-3,4-dihydro-2H-benzo[b][1,4]oxazin-7-yl)-3-((1-methylpyrrolidin-3-yl)methyl)-3H-imidazo[4,5-c]pyridin-7-yl)benzonitrile]

Further lines, the compound ahead of its results:

Row | SMILES | pIC50
4 | CN1CCOc2ccc(-c3ncc4c(ncn4C[C@H]4CCNC4)c3-c3ccc(C#N)c(F)c3)cc21 [compound 29, (S)-2-fluoro-4-(6-(4-methyl-3,4-dihydro-2H-benzo[b][1,4]oxazin-6-yl)-3-(pyrrolidin-3-ylmethyl)-3H-imidazo[4,5-c]pyridin-7-yl)benzonitrile] | 7.33
5 | Cn1ncc2cc(-c3ncc4c(ncn4C[C@H]4CCNC4)c3-c3ccc(C#N)cc3)ccc21 [compound 30, (S)-4-(6-(1-methyl-1H-indazol-5-yl)-3-(pyrrolidin-3-ylmethyl)-3H-imidazo[4,5-c]pyridin-7-yl)benzonitrile] | 7.40
